Experimental data reported in patent US20240192235A1, “CERAMIDE AND SPINGOMYELIN IN NEUROLOGICAL DISORDERS” (Duke University, priority 2021, published 2024).

Assays:
[1] = cited from earlier work
[2] = molecular target: SP1 R1 (Homo sapiens, UniProt P21453); conditions: cited from earlier work
[3] = Fingolimod plasma concentration after oral administration to WT mice (UHPLC, MS-MS); format: in vivo; conditions: both sexes, C57BL/6J, mouse, oral 1 mg/kg/day, read-out: Fingolimod levels in plasma
Procedure: To determine if fingolimod (e.g., Gilenya®, Novartis) oral administration achieves appropriate plasma concentration, 8 WT mice at 7 months old (50% females) were treated with fingolimod at 1 mg/kg/day for 4 wks. Plasma samples were collected at two time points (2nd and 4th weeks) after treatment and analyzed by UHPLC and MS-MS. Fingolimod levels in plasma were in ng/mL: 2nd week=8.03±0.24 and 4th week=10.02±0.4.

[4] = tested on: WT and APP/PS1 mice; assay: Novel object recognition (NOR) test; format: in vivo; conditions: 1 mg/kg/day for eight weeks
Source text: (§1) APPswe/PS1dE9 (referred to as APP/PS1) and C57BI/6J (referred to as WT) mice were purchased from The Jackson Laboratory. The APP/PS1 is a double transgenic mouse expressing a chimeric mouse/human amyloid precursor protein (Mo/HuAPP695swe) and a mutant human presenilin 1 (PS1-dE9), both directed to CNS neurons. 50% of animals used in all experiments were male.
(§2) APP/PS1 mice and their WT littermates were used to examine fingolimod effects in vivo. Fingolimod treatment was provided in drinking water in a dark container and changed every 48 h to provide 1 mg/kg/day.
Mice were habituated to experimental apparatus consisting of a gray rectangular open field (60 cm×50 cm×26 cm) for 5 min in the absence of any objects for 3 days. On the third day, after the habituation trial, mice were placed in the experimental apparatus in the presence of two identical objects and allowed to explore them for 5 min. […] All sessions were recorded using Noldus Media Recorder software. Exploration of the objects was defined as the mice facing and sniffing the objects within 2 cm distance and/or touching them, assessed with ANY-maze software. The ability of the mouse to recognize the novel object (discrimination index) was determined by dividing the mean time exploring the novel object by the mean of the total time exploring the novel and familiar objects during the test session. […]

[5] = tested on: WT and APP/PS1 mice; assay: Barnes Maze task; format: in vivo; conditions: 1 mg/kg/day for eight weeks, probe trial
Source text: as §1, §2
The behavioral apparatus consisted of a white flat, circular disk with 20 holes around its perimeter. One hole held the entrance to a darkened escape box not visible from the surface of the board, allowing the subject to exit the maze. The escape chamber position remained fixed during all trials. Mice learn the location of the escape hole using spatial reference points that were fixed in relation to the maze (extra-maze cues). The task consisted of one habituation trial on day 1 where the escape hole was presented to the animal, the animal remained in the escape box for 2 min. […] All sessions were recorded using Debut video software and assessed through ANY-maze software. For each trial, several parameters were recorded to assess performance. […] For the probe trial, time spent in the target quadrant and target hole were analyzed. […]

[6] = fingolimod-treated APP/PS1 mice

SP1 R1, sequence (P21453 whole entry): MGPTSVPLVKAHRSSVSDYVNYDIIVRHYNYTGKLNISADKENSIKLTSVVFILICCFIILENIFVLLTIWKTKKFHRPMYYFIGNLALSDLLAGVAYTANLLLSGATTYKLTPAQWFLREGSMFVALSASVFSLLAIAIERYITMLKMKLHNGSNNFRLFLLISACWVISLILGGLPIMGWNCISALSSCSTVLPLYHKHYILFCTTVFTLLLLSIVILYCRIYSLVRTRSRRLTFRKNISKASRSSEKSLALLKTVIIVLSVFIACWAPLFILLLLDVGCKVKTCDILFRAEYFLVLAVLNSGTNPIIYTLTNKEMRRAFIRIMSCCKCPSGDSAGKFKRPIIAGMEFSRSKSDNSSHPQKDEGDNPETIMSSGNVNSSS

SMILES: CC(C)Oc1ccc(-c2nc(-c3cccc4c3CC[C@@H]4NCCO)no2)cc1C#N [Ozanimod]
- cognitive processing speed as assessed by the Symbol Digit Modalities Test ([1]; compared to IFNβ1a treatment): improved
- loss of thalamic volume ([1]; compared to IFNβ1a treatment): slower

SMILES: FC(F)(F)c1cccc(-c2noc(-c3cc(-c4ccccc4)c(C(F)(F)F)s3)n2)c1 [SEW2871]
- Aβ mediated behavior abnormalities [2]: improve
- tau phosphorylation [2]: decrease

SMILES: CCc1cc(/C(C)=N/OCc2ccc(C3CCCCC3)c(C(F)(F)F)c2)ccc1CN1CC(C(=O)O)C1 [Siponimod]
- Symbol Digit Modalities Test (SDMT) oral score ([1]; compared with placebo, study months 12 and 24): benefit in favor of Siponimod
- Brief Visuospatial Memory Test-Revised ([1]; compared with placebo): no statistically significant differences between groups
- PASAT score ([1]; compared with placebo): no statistically significant differences between groups
- low contrast visual acuity test ([1]; compared with placebo): small benefit in favor of Siponimod

SMILES: CCCCCCCCc1ccc(CCC(N)(CO)CO)cc1 [fingolimod]
- concentration at 2 weeks ([3]; 2nd week): 8.03 ± 0.24 ng/mL
- concentration at 4 weeks ([3]; 4th week): 10 ± 0.4 ng/mL
- NOR discrimination index (NOR-DI) [4, 6]: 0.40±0.13
- NOR discrimination index (NOR-DI) ([4]; fingolimod-treated WT mice): 0.47±0.08
- percentage of time spent in the target quadrant [5, 6]: 54.81±9.15%
- percentage of time spent in the target quadrant ([5]; fingolimod-treated WT mice): 63.46±11.51%
